Results taken from patent publication US20260242391A1 (priority 2023, published 2026).

How the values were obtained:
HL-60 = HL-60 differentiation potency; type: cell-based; settings: Homo sapiens
in vitro = settings: human

Row | Compound | EC50 (HL-60) [nM] | IC50 (in vitro) [nM]
1 | C[C@H]1[C@H](OC[C@H]2CCC[C@@H](C(=O)O)C2)O[C@@H]2O[C@@]3(C)CC[C@H]4[C@H](C)CC[C@@H]1[C@@]24OO3 [Compound 173, (1R,3S)-3-((((3R,5aS,6R,8aS, 9R,10R,12R, 12aR)-3,6,9-trimethyldeca-hydro-12H-3,12-epoxy[1,2]dioxepino[4,3-i]isochromen-10-yl)oxy)methyl) cyclohexane-1-carboxylic acid] | 170 | > 20000
2 | C[C@H]1[C@@H](OC[C@H]2CC[C@@H](C(=O)NC(C)(C)C)CC2)O[C@@H]2O[C@@]3(C)CC[C@H]4[C@H](C)CC[C@@H]1[C@@]24OO3 [Compound 153, (1R,4s)-N-(tert-butyl)-4-((((3R,5aS,6R,8aS, 9R,10S,12R, 12aR)-3,6,9-trimethyldeca-hydro-12H-3,12-epoxy[1,2]dioxepino[4,3-i]isochromen-10-yl)oxy)methyl) cyclohexane-1-carboxamide] | 97.3 | 540
3 | C[C@H]1[C@@H](Oc2ccc(C(C)(C)C(=O)O)cc2Cl)O[C@@H]2O[C@@]3(C)CC[C@H]4[C@H](C)CC[C@@H]1[C@@]24OO3 [Compound 180, 2-(3-chloro-4-(((3R,5aS,6R,8aS, 9R,10S,12R, 12aR)-3,6,9-trimethyldeca-hydro-12H-3,12-epoxy[1,2]dioxepino[4,3-i]isochromen-10-yl)oxy)phenyl)-2-methylpropanoic acid] | 40.2 | 160
4 | C[C@H]1[C@H](OCc2ccc(C(=O)O)c(Cl)c2)O[C@@H]2O[C@@]3(C)CC[C@H]4[C@H](C)CC[C@@H]1[C@@]24OO3 [Compound 92, 2-chloro-4-((((3R,5aS,6R, 8aS,9R,10R,12R, 12aR)-3,6,9-trimethyldeca-hydro-12H-3,12-epoxy[1,2]dioxepino[4,3-i]isochromen-10-yl)oxy)methyl) benzoic acid] | > 20000 | > 20000
5 | C[C@H]1[C@H](N(C)Cc2ccc(C(=O)O)cc2)O[C@@H]2O[C@@]3(C)CC[C@H]4[C@H](C)CC[C@@H]1[C@@]24OO3 [Compound 102, 4-((methyl((3R, 5aS,6R,8aS,9R, 10R,12R,12aR)-3,6,9-trimethyldeca-hydro-12H-3,12-epoxy[1,2]dioxepino[4,3-i]isochromen-10-yl)amino)methyl) benzoic acid] | > 20000 | > 20000
6 | COc1cc(CN[C@@H]2O[C@@H]3O[C@@]4(C)CC[C@H]5[C@H](C)CC[C@@H]([C@H]2C)[C@@]35OO4)ccn1 [Compound 50, (3R,5aS,6R,8aS, 9R,10R,12R, 12aR)-N-((2-methoxypyridin-4-yl)methyl)-3,6,9-trimethyldeca-hydro-12H-3,12-epoxy[1,2] dioxepino[4,3-i] isochromen-10-amine] | 2320 | 4880
7 | C[C@H]1[C@H](OCC2CCC(F)(F)CC2)O[C@@H]2O[C@@]3(C)CC[C@H]4[C@H](C)CC[C@@H]1[C@@]24OO3 [Compound 105, (3R,5aS,6R,8aS, 9R,10R,12R, 12aR)-10-((4,4-difluorocyclo-hexyl)methoxy)-3,6,9-trimethyldeca-hydro-12H-3,12-epoxy[1,2] dioxepino[4,3-i] isochromene] | 48.4 | 200
8 | C[C@H]1[C@@H](CCN2CC(C(=O)O)C2)O[C@@H]2O[C@@]3(C)CC[C@H]4[C@H](C)CC[C@@H]1[C@@]24OO3 [Compound 68, 1-(2-((3R,5aS,6R,8aS, 9R,10R,12R, 12aR)-3,6,9-trimethyldeca-hydro-12H-3,12-epoxy[1,2]dioxepino[4,3-i]isochromen-10-yl)ethyl) azetidine-3-carboxylic acid] | > 20000 | > 20000
9 | C[C@H]1[C@H](OCC(=O)N2C[C@H]3[C@@H]([C@H]2C(=O)O)C3(C)C)O[C@@H]2O[C@@]3(C)CC[C@H]4[C@H](C)CC[C@@H]1[C@@]24OO3 [Compound 162, (1R,2S,5S)-6,6-dimethyl-3-(2-(((3R,5aS,6R,8aS, 9R,10R,12R, 12aR)-3,6,9-trimethyldeca-hydro-12H-3,12-epoxy[1,2]dioxepino[4,3-i]isochromen-10-yl)oxy)acetyl)-3-azabicyclo[3.1.0] hexane-2-carboxylic acid] | 5750 | > 20000
10 | C[C@H]1[C@H](OCc2ccc(C(=O)O)o2)O[C@@H]2O[C@@]3(C)CC[C@H]4[C@H](C)CC[C@@H]1[C@@]24OO3 [Compound 61, 5-((((3R,5aS,6R, 8aS,9R,10R,12R, 12aR)-3,6,9-trimethyldeca-hydro-12H-3,12-epoxy[1,2]dioxepino[4,3-i]isochromen-10-yl)oxy)methyl) furan-2-carboxylic acid] | 13400 | > 20000
11 | C[C@H]1[C@H](OCc2ccc(-c3nn[nH]n3)cc2)O[C@@H]2O[C@@]3(C)CC[C@H]4[C@H](C)CC[C@@H]1[C@@]24OO3 [Compound 2, 5-(4-((((3R,5aS,6R, 8aS,9R,10R,12R, 12aR)-3,6,9-trimethyldeca-hydro-12H-3,12-epoxy[1,2]dioxepino[4,3-i]isochromen-10-yl)oxy)methyl)phenyl)-2H-tetrazole] | 41.3 | 58.5
12 | C[C@H]1[C@@H](OCc2c(Cl)cc(C(=O)O)cc2Cl)O[C@@H]2O[C@@]3(C)CC[C@H]4[C@H](C)CC[C@@H]1[C@@]24OO3 [Compound 177, 3,5-dichloro-4-((((3R,5aS,6R,8aS, 9R,10S,12R, 12aR)-3,6,9-trimethyldeca-hydro-12H-3,12-epoxy[1,2]dioxepino[4,3-i]isochromen-10-yl)oxy)methyl) benzoic acid] | 44.5 | 660
13 | C[C@H]1[C@H](NC2CS(=O)(=O)C2)O[C@@H]2O[C@@]3(C)CC[C@H]4[C@H](C)CC[C@@H]1[C@@]24OO3 [Compound 52, 3-(((3R,5aS,6R,8aS, 9R,10R,12R, 12aR)-3,6,9-trimethyldeca-hydro-12H-3,12-epoxy[1,2]dioxepino[4,3-i]isochromen-10-yl)amino) thietane 1,1-dioxide] | 2450 | 3550
14 | C[C@H]1[C@@H](OCc2ccc(C(N)=O)cc2)O[C@@H]2O[C@@]3(C)CC[C@H]4[C@H](C)CC[C@@H]1[C@@]24OO3 [Compound 30, 4-((((3R,5aS, 6R,8aS,9R,10S, 12R,12aR)-3,6,9-trimethyldeca-hydro-12H-3,12-epoxy[1,2]dioxepino[4,3-i]isochromen-10-yl)oxy)methyl) benzamide] | 300 | 3520
15 | C[C@H]1[C@H](N(C)C23CC(C(=O)O)(C2)C3)O[C@@H]2O[C@@]3(C)CC[C@H]4[C@H](C)CC[C@@H]1[C@@]24OO3 [Compound 103, 3-(methyl((3R,5aS, 6R,8aS,9R,10R, 12R,12aR)-3,6,9-trimethyldeca-hydro-12H-3,12-epoxy[1,2]dioxepino[4,3-i]isochromen-10-yl)amino)bicyclo [1.1.1]pentane-1-carboxylic acid] | > 20000 | > 20000
16 | C[C@H]1[C@@H](OC[C@H]2CCC[C@@H](C(=O)O)C2)O[C@@H]2O[C@@]3(C)CC[C@H]4[C@H](C)CC[C@@H]1[C@@]24OO3 [Compound 135, (1R,3S)-3-((((3R,5aS,6R, 8aS,9R,10S,12R, 12aR)-3,6,9-trimethyldeca-hydro-12H-3,12-epoxy[1,2]dioxepino[4,3-i]isochromen-10-yl)oxy)methyl) cyclohexane-1-carboxylic acid] | 225 | > 20000
